We go through 1 molecule from article PMC11859198, “Identification of Furin Protease Small-Molecule Inhibitor with a 1,3-Thiazol-2-ylaminosulfonyl Scaffold” (Pharmaceuticals, 2025).

In this assay the target is furin (Homo sapiens, UniProt P09958). The experiment in a line: fluorogenic furin protease assay (BPS Bioscience kit), IC50 in triplicate. The class given is biochemical. As to conditions: read-out: Biological Activity ^2 [IC50; μM] ^3 or % Inhibition ^4.

One may read the IC50 as the concentration at which inhibition is half-maximal.

Sequence of furin (P09958 108-794): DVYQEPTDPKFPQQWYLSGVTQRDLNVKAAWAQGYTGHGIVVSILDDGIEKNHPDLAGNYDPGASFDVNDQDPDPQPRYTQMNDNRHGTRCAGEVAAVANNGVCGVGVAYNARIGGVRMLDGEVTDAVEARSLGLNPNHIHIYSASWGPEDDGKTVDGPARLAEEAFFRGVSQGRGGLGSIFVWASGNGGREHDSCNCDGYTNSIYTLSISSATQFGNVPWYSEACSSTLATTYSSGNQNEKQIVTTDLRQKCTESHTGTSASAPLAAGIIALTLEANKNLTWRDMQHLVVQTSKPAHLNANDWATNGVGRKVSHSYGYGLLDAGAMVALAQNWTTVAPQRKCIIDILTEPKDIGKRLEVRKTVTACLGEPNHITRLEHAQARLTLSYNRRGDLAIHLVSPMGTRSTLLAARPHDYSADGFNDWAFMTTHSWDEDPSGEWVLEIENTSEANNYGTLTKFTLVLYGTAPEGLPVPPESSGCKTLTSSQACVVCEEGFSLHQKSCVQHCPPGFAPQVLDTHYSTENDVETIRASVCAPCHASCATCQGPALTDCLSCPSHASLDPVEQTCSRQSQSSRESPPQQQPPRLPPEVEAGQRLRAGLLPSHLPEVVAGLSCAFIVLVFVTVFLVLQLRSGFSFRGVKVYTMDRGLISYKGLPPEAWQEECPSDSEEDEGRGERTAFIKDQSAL

`COc1ccccc1/C=C1/SC(=S)N(CCC(=O)Nc2ccc(S(=O)(=O)Nc3nccs3)cc2)C1=O` [compound 4, N-[4-(1,3-thiazol-2-ylaminosulfonyl)phenyl]-3-{(E)-5-[(2-methoxyphenyl)methylene]-4-oxo-2-thioxo-1,3-thiazolidin-3-yl}propionamide]: the IC50 was 17.6 ± 2.29 µM.
